{"source": "PubChem BioAssay (NCI)", "test_in_all_cases": "inhibition of tumour cell growth, NCI panel, 48 h", "key": {"NCI-H226 lung": {"system": "NCI-H226 lung"}, "SK-MEL-5 melanoma": {"system": "SK-MEL-5 melanoma"}, "SF-539 CNS": {"system": "SF-539 CNS"}, "SW-620 colon": {"system": "SW-620 colon"}, "CCRF-CEM leukemia": {"system": "CCRF-CEM leukemia"}, "MOLT-4 leukemia": {"system": "MOLT-4 leukemia"}, "OVCAR-4 ovarian": {"system": "OVCAR-4 ovarian"}, "786-0 renal": {"system": "786-0 renal"}, "OVCAR-3 ovarian": {"system": "OVCAR-3 ovarian"}, "RXF 393 renal": {"system": "RXF 393 renal"}, "ACHN renal": {"system": "ACHN renal"}, "SN12C renal": {"system": "SN12C renal"}, "T-47D breast": {"system": "T-47D breast"}, "CAKI-1 renal": {"system": "CAKI-1 renal"}, "HCC-2998 colon": {"system": "HCC-2998 colon"}, "DU-145 prostate": {"system": "DU-145 prostate"}, "SF-268 CNS": {"system": "SF-268 CNS"}, "SK-MEL-28 melanoma": {"system": "SK-MEL-28 melanoma"}, "M14 melanoma": {"system": "M14 melanoma"}, "KM12 colon": {"system": "KM12 colon"}, "RPMI-8226 leukemia": {"system": "RPMI-8226 leukemia"}, "NCI-H522 lung": {"system": "NCI-H522 lung"}, "UACC-62 melanoma": {"system": "UACC-62 melanoma"}, "IGROV1 ovarian": {"system": "IGROV1 ovarian"}, "MALME-3M melanoma": {"system": "MALME-3M melanoma"}, "BT-549 breast": {"system": "BT-549 breast"}, "HCT-116 colon": {"system": "HCT-116 colon"}, "SK-MEL-2 melanoma": {"system": "SK-MEL-2 melanoma"}, "LOX IMVI melanoma": {"system": "LOX IMVI melanoma"}, "NCI-H23 lung": {"system": "NCI-H23 lung"}, "K-562 leukemia": {"system": "K-562 leukemia"}, "TK-10 renal": {"system": "TK-10 renal"}, "SR leukemia": {"system": "SR leukemia"}, "EKVX NSCLC": {"system": "EKVX NSCLC"}, "HT29 colon": {"system": "HT29 colon"}, "OVCAR-8 ovarian": {"system": "OVCAR-8 ovarian"}, "SNB-75 CNS": {"system": "SNB-75 CNS"}, "U251 CNS": {"system": "U251 CNS"}, "UO-31 renal": {"system": "UO-31 renal"}, "COLO 205 colon": {"system": "COLO 205 colon"}, "NCI-H460 lung": {"system": "NCI-H460 lung"}, "UACC-257 melanoma": {"system": "UACC-257 melanoma"}, "SK-OV-3 ovarian": {"system": "SK-OV-3 ovarian"}, "SNB-19 CNS": {"system": "SNB-19 CNS"}, "MDA-N": {"system": "MDA-N"}, "HL-60(TB) leukemia": {"system": "HL-60(TB) leukemia"}, "HCT-15 colon": {"system": "HCT-15 colon"}, "A549 NSCLC": {"system": "A549 NSCLC"}, "MCF7 breast": {"system": "MCF7 breast"}, "MDA-MB-231 breast": {"system": "MDA-MB-231 breast"}, "OVCAR-5 ovarian": {"system": "OVCAR-5 ovarian"}, "PC-3 prostate": {"system": "PC-3 prostate"}, "NCI/ADR-RES ovarian": {"system": "NCI/ADR-RES ovarian"}, "HOP-62 NSCLC": {"system": "HOP-62 NSCLC"}, "MDA-MB-435": {"system": "MDA-MB-435"}, "HS 578T breast": {"system": "HS 578T breast"}, "HOP-92 NSCLC": {"system": "HOP-92 NSCLC"}, "SF-295 CNS": {"system": "SF-295 CNS"}}, "note": "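Exposure lasted 48 hours, with cells grown in 96-well plates and compounds tested at five concentrations. Definition used: TGI = concentration required for complete inhibition of growth.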"}
{"smiles": "O=C(NC(=S)Nc1ccc2c(c1)Sc1ccccc1O2)c1ccccc1", "values": [{"measurement": "TGI", "setting": "NCI-H226 lung", "result": "> 100", "unit": "µM"}, {"measurement": "TGI", "setting": "SK-MEL-5 melanoma", "result": "> 100", "unit": "µM"}, {"measurement": "TGI", "setting": "SF-539 CNS", "result": 64.6, "unit": "µM"}, {"measurement": "TGI", "setting": "SW-620 colon", "result": "> 100", "unit": "µM"}, {"measurement": "TGI", "setting": "CCRF-CEM leukemia", "result": 95.9, "unit": "µM"}, {"measurement": "TGI", "setting": "MOLT-4 leukemia", "result": "> 100", "unit": "µM"}, {"measurement": "TGI", "setting": "OVCAR-4 ovarian", "result": 92.3, "unit": "µM"}, {"measurement": "TGI", "setting": "786-0 renal", "result": 48.1, "unit": "µM"}, {"measurement": "TGI", "setting": "OVCAR-3 ovarian", "result": "> 100", "unit": "µM"}, {"measurement": "TGI", "setting": "RXF 393 renal", "result": 64.5, "unit": "µM"}, {"measurement": "TGI", "setting": "ACHN renal", "result": "> 100", "unit": "µM"}, {"measurement": "TGI", "setting": "SN12C renal", "result": "> 100", "unit": "µM"}, {"measurement": "TGI", "setting": "T-47D breast", "result": "> 100", "unit": "µM"}, {"measurement": "TGI", "setting": "CAKI-1 renal", "result": "> 100", "unit": "µM"}, {"measurement": "TGI", "setting": "HCC-2998 colon", "result": 49.2, "unit": "µM"}, {"measurement": "TGI", "setting": "DU-145 prostate", "result": "> 100", "unit": "µM"}, {"measurement": "TGI", "setting": "SF-268 CNS", "result": "> 100", "unit": "µM"}, {"measurement": "TGI", "setting": "SK-MEL-28 melanoma", "result": "> 100", "unit": "µM"}, {"measurement": "TGI", "setting": "M14 melanoma", "result": "> 100", "unit": "µM"}, {"measurement": "TGI", "setting": "KM12 colon", "result": "> 100", "unit": "µM"}, {"measurement": "TGI", "setting": "RPMI-8226 leukemia", "result": "> 100", "unit": "µM"}, {"measurement": "TGI", "setting": "NCI-H522 lung", "result": "> 100", "unit": "µM"}, {"measurement": "TGI", "setting": "UACC-62 melanoma", "result": "> 100", "unit": "µM"}, {"measurement": "TGI", "setting": "IGROV1 ovarian", "result": "> 100", "unit": "µM"}, {"measurement": "TGI", "setting": "MALME-3M melanoma", "result": 93.2, "unit": "µM"}, {"measurement": "TGI", "setting": "BT-549 breast", "result": "> 100", "unit": "µM"}, {"measurement": "TGI", "setting": "HCT-116 colon", "result": "> 100", "unit": "µM"}, {"measurement": "TGI", "setting": "SK-MEL-2 melanoma", "result": 48.8, "unit": "µM"}, {"measurement": "TGI", "setting": "LOX IMVI melanoma", "result": "> 100", "unit": "µM"}, {"measurement": "TGI", "setting": "NCI-H23 lung", "result": "> 100", "unit": "µM"}, {"measurement": "TGI", "setting": "K-562 leukemia", "result": "> 100", "unit": "µM"}, {"measurement": "TGI", "setting": "TK-10 renal", "result": 54.3, "unit": "µM"}, {"measurement": "TGI", "setting": "SR leukemia", "result": 16.1, "unit": "µM"}, {"measurement": "TGI", "setting": "EKVX NSCLC", "result": "> 100", "unit": "µM"}, {"measurement": "TGI", "setting": "HT29 colon", "result": "> 100", "unit": "µM"}, {"measurement": "TGI", "setting": "OVCAR-8 ovarian", "result": "> 100", "unit": "µM"}, {"measurement": "TGI", "setting": "SNB-75 CNS", "result": 40.3, "unit": "µM"}, {"measurement": "TGI", "setting": "U251 CNS", "result": 49.6, "unit": "µM"}, {"measurement": "TGI", "setting": "UO-31 renal", "result": "> 100", "unit": "µM"}, {"measurement": "TGI", "setting": "COLO 205 colon", "result": "> 100", "unit": "µM"}, {"measurement": "TGI", "setting": "NCI-H460 lung", "result": "> 100", "unit": "µM"}, {"measurement": "TGI", "setting": "UACC-257 melanoma", "result": "> 100", "unit": "µM"}, {"measurement": "TGI", "setting": "SK-OV-3 ovarian", "result": "> 100", "unit": "µM"}, {"measurement": "TGI", "setting": "SNB-19 CNS", "result": "> 100", "unit": "µM"}, {"measurement": "TGI", "setting": "MDA-N", "result": "> 100", "unit": "µM"}, {"measurement": "TGI", "setting": "HL-60(TB) leukemia", "result": "> 100", "unit": "µM"}, {"measurement": "TGI", "setting": "HCT-15 colon", "result": "> 100", "unit": "µM"}, {"measurement": "TGI", "setting": "A549 NSCLC", "result": "> 100", "unit": "µM"}, {"measurement": "TGI", "setting": "MCF7 breast", "result": "> 100", "unit": "µM"}, {"measurement": "TGI", "setting": "MDA-MB-231 breast", "result": 57.8, "unit": "µM"}, {"measurement": "TGI", "setting": "OVCAR-5 ovarian", "result": "> 100", "unit": "µM"}, {"measurement": "TGI", "setting": "PC-3 prostate", "result": 28.5, "unit": "µM"}, {"measurement": "TGI", "setting": "NCI/ADR-RES ovarian", "result": "> 100", "unit": "µM"}, {"measurement": "TGI", "setting": "HOP-62 NSCLC", "result": "> 100", "unit": "µM"}, {"measurement": "TGI", "setting": "MDA-MB-435", "result": "> 100", "unit": "µM"}, {"measurement": "TGI", "setting": "HS 578T breast", "result": "> 100", "unit": "µM"}, {"measurement": "TGI", "setting": "HOP-92 NSCLC", "result": 69, "unit": "µM"}, {"measurement": "TGI", "setting": "SF-295 CNS", "result": 79.4, "unit": "µM"}]}
